# Test results reported in article PMC13500670, “The U1 snRNP protein U1C and Helix H of U1 snRNA are critical for small molecule splicing modulator function” (Nature Communications, 2026).
# Legend:
# [1] = test system: cassette exon / GA/GU iExon inclusion, HEK293 cells, scr siRNA; test: RNA-seq splicing analysis, compound dose response, scrambled (mock) siRNA; format: cell-based, human
# Text: (§1) Skipped exons are highly enriched for noncanonical 5′ ss sequences (on either the intronic or exonic side), which account for 90% of skipped exons (Supplementary Fig. 8C). For example, among skipped exons with a canonical exonic 5′ ss sequence, 74% contain noncanonical intron sequence. These observations are consistent with the previous published role for U1C stabilization of the U1 snRNA-pre-mRNA duplex at the 5′ ss[25]–[28]. […] We will refer to these as class I exons for clarity in later discussion.
# (§2) We next examined the effect of U1C knockdown on compound-mediated splicing. […] We next used the complete dose response to calculate the effective concentration at which deltaPSIcompound-DMSO is 30 (EC-dPSI30).
# (§3) HEK293T cells were grown in DMEM media with 10% FBS. 500,000 cells in 1.75 mL of media were plated into a 6-well plate for approximately 6 h. Either siRNA negative control (ThermoFisher Silencer^TM Negative control #2, AM4613) or U1C siRNA (ThermoFisher Silencer^TM Select Pre-designed siRNA, S13225) were transfected for a final concentration of 25 nM using Invitrogen Lipofectamine RNAiMax (13778-150). In brief, 10 μL 5 μM siRNA was added to 115 μL of OptiMEM, while 5 μL Lipofectamine added to 120 μL OptiMEM for 5 minu before mixing the solutions and incubating for 20 min. 250 μL of Lipofectamine:siRNA solution was gentle added to the 1.75 mL cells. After 24 h post-transfection, cells were treated with 10 μL compound resuspended in DMSO. […] Each compound-treated experimental condition was treated and collected in duplicate, while four DMSO only treated samples per siRNA transfection were collected. RNA was isolated using KingFisher^TM Apex instrument and the MagMAX™ mirVana™ Total RNA Isolation Kit (A27828) by Thermo Fisher according to manufacturer’s protocol. Isolated RNA was submitted to Admera Health for library preparation (polyA selected, stranded) and mRNA-sequencing and >20 M 150 bp pair-end reads were returned.
# RNAseq and splicing analysis were described earlier using DEDseq (https:// github.com/liwc01/DEDSeq[18]) with minor modifications. RNA sequencing reads were mapped to human genome (hg19) using STAR (version 2.7.10b); only uniquely mapped reads (with MAPQ > 10) with <5 nt/100 nt mismatches and properly paired reads were used. For splicing analysis, all junction reads (read with a gap in alignment indicating splicing) were used, including the ones mapped to unannotated splice sites. Reads were counted for different exons (for cassette exon [CE]) or exonic regions (for A5′ss or A3′ss). For each splicing event, a percent-spliced-in (PSI) value was calculated using the percent of average read number supporting the inclusion among all reads supporting either the inclusion or the exclusion. A minimum of 10 for the denominator of PSI calculation was required. Otherwise, a “NA” value would be generated. PSI values for biological replicates were averaged, and the PSI difference between the two treatment groups was calculated. For a statistical test, a 2 × 2 read counts table was made for each event, with rows for reads supporting inclusion or exclusion, and columns for the two comparing sample groups. Fisher’s exact test was used for the statistical tests. For biological replicates, each pair of the testing and control sample was analyzed by Fisher’s exact test and the geometric mean of all P-values was reported as a final P-value. PSI change (deltaPSI) of >10% (or < −10%) and P < 0.001 was used to select splicing events being regulated by the treatment. PSI calculation, Fisher’s exact test were performed using R (4.0.5). 5′ ss composition analysis was performed as described in ref. [25]. Potency of splicing modulator was determined by plotting dPSI and identifying the concentration at which the change in PSI reached 30% and reported as EC_dPSI30.
# [2] = test system: cassette exon / GA/GU iExon inclusion, HEK293 cells, U1C KD; test: RNA-seq splicing analysis, compound dose response, U1C knockdown; format: cell-based, human
# Text: as §1, §2, §3
# RNAseq and splicing analysis were described earlier using DEDseq (https:// github.com/liwc01/DEDSeq[18]) with minor modifications. RNA sequencing reads were mapped to human genome (hg19) using STAR (version 2.7.10b); only uniquely mapped reads (with MAPQ > 10) with <5 nt/100 nt mismatches and properly paired reads were used. For splicing analysis, all junction reads (read with a gap in alignment indicating splicing) were used, including the ones mapped to unannotated splice sites. Reads were counted for different exons (for cassette exon [CE]) or exonic regions (for A5′ss or A3′ss). For each splicing event, a percent-spliced-in (PSI) value was calculated using the percent of average read number supporting the inclusion among all reads supporting either the inclusion or the exclusion. A minimum of 10 for the denominator of PSI calculation was required. Otherwise, a “NA” value would be generated. PSI values for biological replicates were averaged, and the PSI difference between the two treatment groups was calculated. For a statistical test, a 2 × 2 read counts table was made for each event, with rows for reads supporting inclusion or exclusion, and columns for the two comparing sample groups. […] For biological replicates, each pair of the testing and control sample was analyzed by Fisher’s exact test and the geometric mean of all P-values was reported as a final P-value. […] Potency of splicing modulator was determined by plotting dPSI and identifying the concentration at which the change in PSI reached 30% and reported as EC_dPSI30.
# [3] = target: T1, U1 snRNP + FOXM1 5' ss oligo (Homo sapiens, UniProt P09234); test: FP: U1 snRNP binding to FOXM1 5' ss oligo (Supplementary Fig. 2)
# T1 construct: host or cells: either HeLa-S3 U1A-HTP cells (native, as F1) or E. coli proteins (reconstituted, as F2)
# Description: All of 5′-FAM labeled RNA oligos used in this study were synthesized and purified by IDT (USA). Fluorescence polarization (FP) assays were performed in binding buffer (20 mM HEPES pH 7.5, 1 mM MgCl2, 200 mM KCl, 0.01% TritonX-100, 0.1%PEG3350, 2%DMSO) at room temperature using a Envision HTS Plate Reader system (Revvity). Each reaction system contains 3 nM of FAM-labeled RNA oligo, reconstituted U1 snRNP (or native U1 snRNP, or full-length U1 snRNA, or the 5′end of U1 snRNA) at twofold increasing concentrations, 800 nM (for reconstituted U1 snRNP) or 400 nM (for native U1 snRNP) U1C, different small molecules in DMSO (10 μM unless otherwise stated). The equilibrium dissociation constants (Kd) of binding reaction were calculated using the following single-site binding model formula in GraphPad Prism: y=START+(END−START)x/kD+x where x and y represent the concentration of U1 snRNP (or U1 snRNA) and the polarization value measured respectively, START represents the polarization value of protein-free nucleic acid probe, END represents the maximum polarization value when U1 snRNP (or U1 snRNA) binds to the fluorescently labeled 5′ ss oligo. All FP experiments are carried out in two distinct biological replicates and error bars represent the standard deviation.
structure (smiles),measurement,setting,value
"Cc1cn2nc(-c3cc(=O)n4cc(N5CCNC6(CC6)C5)ccc4n3)cc(C)c2n1 [Risdiplam, risdiplam]",geomean pEC_dPSI30 for all GA/GU iExons,"[1]; Fig. 8C, mock knockdown, -log10 of compound concentration when dPSI achieves 30%",6.05
same,saturation PSI of PDXDC1 iExon,"[1]; highest dose, mock and U1C KD reach similar saturation",40
same,U1CKD Log10 effect,"[2]; Fig. 8C picture, pEC-dPSI30 mock versus U1C KD",-0.42
same,geomean pEC_dPSI30 for all GA/GU iExons,"[2]; Fig. 8C, U1C KD",5.63
same,effect on binding between U1 snRNP and FOXM1 5' ss oligo,[3],no effect
